# Target: T1, GCS (Canis lupus familiaris, UniProt A0A8I3MXG6)
# T1 construct: endogenous in cells; host or cells: MDCK (Madin-Darby canine kidney) cells, whole-cell lysate
# T1 sequence (A0A8I3MXG6 1-394): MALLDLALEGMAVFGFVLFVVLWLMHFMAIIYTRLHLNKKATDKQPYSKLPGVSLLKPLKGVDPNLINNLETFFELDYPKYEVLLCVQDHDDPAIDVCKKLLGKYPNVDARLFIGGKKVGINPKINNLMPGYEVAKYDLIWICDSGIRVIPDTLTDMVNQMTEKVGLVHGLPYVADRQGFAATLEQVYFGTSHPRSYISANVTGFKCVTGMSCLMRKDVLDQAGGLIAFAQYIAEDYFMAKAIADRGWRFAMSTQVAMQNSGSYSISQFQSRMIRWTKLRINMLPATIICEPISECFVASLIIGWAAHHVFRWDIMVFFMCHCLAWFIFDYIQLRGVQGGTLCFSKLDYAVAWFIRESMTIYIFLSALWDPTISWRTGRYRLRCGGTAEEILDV
# Assay: GCS enzymatic assay (MDCK cell lysate, NBD-ceramide to glucosylceramide, LC/MS)
# Assay type: biochemical, canine
# Settings: Table 2; class symbols A, B, C; the table does not say which of the assays; read-out: Data Range (IC50 values)
# Protocol: This assay was modified based on the study by Larsen et al. (J. Lipid Res. 2011, 53, 282). Madin-Darby canine kidney (MDCK) cell lysate was prepared using M-PER Mammalian Protein Extraction Reagent (Thermal Scientific) in the presence of a protease inhibitor cocktail (Roche). Protein concentration was determined using BCA assay kit (Pierce). […] 0.1% DMSO was used as mock treatment or control. The reaction was terminated by adding 100 μL acetonitrile solution and subjected to LC/MS analysis.
# The quantitative analysis of NBD-Ceramide and glucosylceramide was performed on a Shimadzu ultra-fast liquid chromatography (Shimadzu, Japan) coupled with API 4000 triple quadrupole mass spectrometer (Applied Biosystems, Concord, Ontario, Canada). Sample separation was conducted on a Waters Xbridge™ BEH130 C18, 100 mm×4.6 mm i.d, 3.5 μm (Milford, Mass., USA). The mobile phase consisted of water and acetonitrile supplemented with 0.1% formic acid (v/v). The flow rate was 1.0 mL/min. The initial mobile phase was 20% acetonitrile and was ramped in a linear fashion to 50% acetonitrile in 0.4 min. From 0.4 to 1.5 min, the gradient was ramped to 98% acetonitrile, and then was held at […] until 8.0 min. Acetonitrile was reset to 20% in 1.5 min, and maintained until 10.0 min. The total run time was 10.0 min. The MS/MS detection was performed in ESI positive mode. The mass transition of NBD-Ceramide was m/z 576.36→558.40 under the collision energy of 15 V, and the mass transition of glucosylceramide was m/z 738.35→558.40 under 21V collision energy. The cell lysate was diluted with equal volume of acetonitrile. Aliquots of 50 μL diluted samples were added to 1.5 mL tubes, and 100 μL of acetonitrile containing internal standard (100 ng/mL tolbutamide) were added for protein precipitation. The mixture were vortexed and then centrifuged at 13000 rpm for 10 min. 70 μL of supernatant were mixed with 140 μL of H2O and the final solution were injected for LC/MS/MS analysis and IC50's and/or percent inhibitions calculated.
row,IC50 [nM],Compound
1,1 to 30,"Cc1ccc(N2CC[C@@H](C(=O)N[C@H](CN3CCCC3)[C@H](O)c3ccc(OC4CC4)c(Cl)c3)C2)cc1 [Compound 153, (R)-N-((1R,2R)-1-(3-chloro-4-cyclopropoxyphenyl)-1-hydroxy-3-(pyrrolidin-1-yl)propan-2-yl)-1-(p-tolyl)pyrrolidine-3-carboxamide]"
2,1 to 30,"O=C(N[C@H](CN1CCCC1)[C@H](O)c1ccc(OC2CC2)c(Cl)c1)[C@@H]1CCN(c2cccc(Oc3ccccn3)c2)C1 [Compound 75, (R)-N-((1R,2R)-1-(3-chloro-4-cyclopropoxyphenyl)-1-hydroxy-3-(pyrrolidin-1-yl)propan-2-yl)-1-(3-(pyridin-2-yloxy)phenyl)pyrrolidine-3-carboxamide]"
3,1 to 30,"O=C(N[C@H](CN1CCCC1)[C@H](O)c1ccc2c(c1)OCCO2)[C@H]1CCN(c2ccc3c(c2)CCCC3)C1 [Compound 80H, (S)-N-((1R,2R)-1-(2,3-dihydrobenzo[b][1,4]dioxin-6-yl)-1-hydroxy-3-(pyrrolidin-1-yl)propan-2-yl)-1-(5,6,7,8-tetrahydronaphthalen-2-yl)pyrrolidine-3-carboxamide]"
4,1 to 30,"O=C(N[C@H](CN1CCCC1)[C@H](O)c1ccc2c(c1)OCCO2)[C@@H]1CCN(c2ccc(F)cc2)C1 [Compound 24, (R)-N-((1R,2R)-1-(2,3-dihydrobenzo[b][1,4]dioxin-6-yl)-1-hydroxy-3-(pyrrolidin-1-yl)propan-2-yl)-1-(4-fluorophenyl)pyrrolidine-3-carboxamide]"
5,1 to 30,"O=C(N[C@H](CN1CCCC1)[C@H](O)c1ccc(OC2CC2)c(Cl)c1)[C@@H]1CCN(c2ccccn2)C1 [Compound 54, (R)-N-((1R,2R)-1-(3-chloro-4-cyclopropoxyphenyl)-1-hydroxy-3-(pyrrolidin-1-yl)propan-2-yl)-1-(pyridin-2-yl)pyrrolidine-3-carboxamide]"
6,1 to 30,"O=C(N[C@H](CN1CCCC1)[C@H](O)c1ccc(OC2CC2)c(Cl)c1)[C@@H]1CCN(c2cccc(Oc3ccc(F)cc3)n2)C1 [Compound 115, (R)-N-((1R,2R)-1-(3-chloro-4-cyclopropoxyphenyl)-1-hydroxy-3-(pyrrolidin-1-yl)propan-2-yl)-1-(6-(4-fluorophenoxy)pyridin-2-yl)pyrrolidine-3-carboxamide]"
7,1 to 30,"O=C(N[C@H](CN1CCC1)[C@H](O)c1cc(F)c2c(c1)OCCO2)[C@@H]1CCN(c2ccc3cc(Cl)sc3c2)C1 [Compound 108, (R)-N-((1R,2R)-3-(azetidin-1-yl)-1-(8-fluoro-2,3-dihydrobenzo[b][1,4]dioxin-6-yl)-1-hydroxypropan-2-yl)-1-(2-chlorobenzo[b]thiophen-6-yl)pyrrolidine-3-carboxamide]"
8,1 to 30,"O=C(N[C@H](CN1CCCC1)[C@H](O)c1cc(F)c2c(c1)OCCO2)[C@@H]1CCN(c2ccc(Cl)cc2)C1 [Compound 2, (R)-1-(4-chlorophenyl)-N-((1R,2R)-1-(8-fluoro-2,3-dihydrobenzo[b][1,4]dioxin-6-yl)-1-hydroxy-3-(pyrrolidin-1-yl)propan-2-yl)pyrrolidine-3-carboxamide]"
9,1 to 30,"O=C(N[C@H](CN1CCCC1)[C@H](O)c1cc(F)c2c(c1)OCCO2)[C@@H]1CCN(c2ccccn2)C1 [Compound 48, (R)-N-((1R,2R)-1-(8-fluoro-2,3-dihydrobenzo[b][1,4]dioxin-6-yl)-1-hydroxy-3-(pyrrolidin-1-yl)propan-2-yl)-1-(pyridin-2-yl)pyrrolidine-3-carboxamide]"
10,1 to 30,"O=C(N[C@H](CN1CCCC1)[C@H](O)c1ccc(OC2CCOCC2)c(Cl)c1)[C@@H]1CCN(c2ccc3cc(Cl)sc3c2)C1 [Compound 101, (R)-N-((1R,2R)-1-(3-chloro-4-((tetrahydro-2H-pyran-4-yl)oxy)phenyl)-1-hydroxy-3-(pyrrolidin-1-yl)propan-2-yl)-1-(2-chlorobenzo[b]thiophen-6-yl)pyrrolidine-3-carboxamide]"
11,1 to 30,"Cc1cccc(Oc2cc(N3CC[C@@H](C(=O)N[C@H](CN4CCCC4)[C@H](O)c4ccc(OC5CC5)c(Cl)c4)C3)ccc2Cl)n1 [Compound 131, (R)-1-(4-chloro-3-((6-methylpyridin-2-yl)oxy)phenyl)-N-((1R,2R)-1-(3-chloro-4-cyclopropoxyphenyl)-1-hydroxy-3-(pyrrolidin-1-yl)propan-2-yl)pyrrolidine-3-carboxamide]"

# Same assay, conditions: Table 2; class symbols D, E, F, NA (not active); the table does not say which of the assays
row,Compound,Data Range (% inhibition)
1,"O=C(N[C@H](CN1CCCC1)[C@H](O)c1ccc2c(c1)OCCO2)[C@@H]1CCN(CCc2ccc(Cl)cc2)C1 [Compound 21, (R)-1-(4-chlorophenethyl)-N-((1R,2R)-1-(2,3-dihydrobenzo[b][1,4]dioxin-6-yl)-1-hydroxy-3-(pyrrolidin-1-yl)propan-2-yl)pyrrolidine-3-carboxamide]",F (1-49% (or less than 50%))
2,"CN1CCc2ccc(N3CC[C@@H](C(=O)N[C@H](CN4CCCC4)[C@H](O)c4ccc5c(c4)OCCO5)C3)cc2C1 [Compound 63, (R)-N-((1R,2R)-1-(2,3-dihydrobenzo[b][1,4]dioxin-6-yl)-1-hydroxy-3-(pyrrolidin-1-yl)propan-2-yl)-1-(2-methyl-1,2,3,4-tetrahydroisoquinolin-7-yl)pyrrolidine-3-carboxamide]",F (1-49% (or less than 50%))
3,"O=C(N[C@H](CN1CCCC1)[C@H](O)c1ccc2c(c1)OCCO2)[C@H]1CCN(C2CCOCC2)C1 [Compound 9E, (S)-N-((1R,2R)-1-(2,3-dihydrobenzo[b][1,4]dioxin-6-yl)-1-hydroxy-3-(pyrrolidin-1-yl)propan-2-yl)-1-(tetrahydro-2H-pyran-4-yl)pyrrolidine-3-carboxamide]",NA (not active—a negative value was generated for % inhibition)
4,"CC1(C)CCc2cc([C@@H](O)[C@@H](CN3CCCC3)NC(=O)[C@@H]3CCN(c4ccc(Cl)cc4)C3)ccc2O1 [Compound 51, (R)-1-(4-chlorophenyl)-N-((1R,2R)-1-(2,2-dimethylchroman-6-yl)-1-hydroxy-3-(pyrrolidin-1-yl)propan-2-yl)pyrrolidine-3-carboxamide]",F (1-49% (or less than 50%))
5,"Cn1ncc2ccc(N3CC[C@@H](C(=O)N[C@H](CN4CCCC4)[C@H](O)c4ccc5c(c4)OCCO5)C3)cc21 [Compound 61, (R)-N-((1R,2R)-1-(2,3-dihydrobenzo[b][1,4]dioxin-6-yl)-1-hydroxy-3-(pyrrolidin-1-yl)propan-2-yl)-1-(1-methyl-1H-indazol-6-yl)pyrrolidine-3-carboxamide]",NA (not active—a negative value was generated for % inhibition)
6,"O=C(N[C@H](CN1CCCC1)[C@H](O)c1ccc2c(c1)OCCO2)[C@@H]1CCN(c2ccccn2)C1 [Compound 22, (R)-N-((1R,2R)-1-(2,3-dihydrobenzo[b][1,4]dioxin-6-yl)-1-hydroxy-3-(pyrrolidin-1-yl)propan-2-yl)-1-(pyridin-2-yl)pyrrolidine-3-carboxamide]",E (50-74% (or less than 75%))

# Continued, values first:
row,Data Range (% inhibition),Compound
1,F (1-49% (or less than 50%)),"O=C(N[C@H](CN1CCCC1)[C@H](O)c1ccc(OC2CC2)c(Cl)c1)[C@H]1CCN(c2ccc3c(c2)CCCC3)C1 [Compound 98A, (S)-N-((1R,2R)-1-(3-chloro-4-cyclopropoxyphenyl)-1-hydroxy-3-(pyrrolidin-1-yl)propan-2-yl)-1-(5,6,7,8-tetrahydronaphthalen-2-yl)pyrrolidine-3-carboxamide]"
2,F (1-49% (or less than 50%)),"O=C(N[C@H](CN1CCCC1)[C@H](O)c1ccc(OC2CC2)c(Cl)c1)[C@H]1CCN(c2ccc3cc(F)ccc3c2)C1 [Compound 84A, (S)-N-((1R,2R)-1-(3-chloro-4-cyclopropoxyphenyl)-1-hydroxy-3-(pyrrolidin-1-yl)propan-2-yl)-1-(6-fluoronaphthalen-2-yl)pyrrolidine-3-carboxamide]"
3,F (1-49% (or less than 50%)),"CN1CCC(Oc2ccc([C@@H](O)[C@@H](CN3CCCC3)NC(=O)[C@H]3CCN(c4ccc(Cl)cc4)C3)cc2Cl)CC1 [Compound 49A, (S)-N-((1R,2R)-1-(3-chloro-4-((1-methylpiperidin-4-yl)oxy)phenyl)-1-hydroxy-3-(pyrrolidin-1-yl)propan-2-yl)-1-(4-chlorophenyl)pyrrolidine-3-carboxamide]"

# Reference: patent US10239832B2, “N-(1-hydroxy-3-(pyrrolidinyl)propan-2-yl)pyrrolidine-3-carboxamide derivatives as glucosylceramide synthase inhibitors” (BIOMARIN PHARMACEUTICAL INC., priority 2013, dated 2019)
